Experimental data from PubChem BioAssay AID328 (DTP/NCI, 2004).
“And” between values parts separate entries of the source, which are not always exact repeats. Equal entries are not always repeated. Toxic doses and inconclusive results are not listed.

Test system: BDF1 mice, P388 leukemia ip, median survival T/C
Test: NCI In Vivo Anticancer Drug Screen. Data for tumor model P388 Leukemia (intraperitoneal) in B6D2F1 (BDF1) mice
Conditions: endpoint: median survival time, higher = longer survival
How it was run: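 Transplantable tumour in mice; compound vs vehicle dosing; survival scored; ratio of treated to control reported.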

[1] = dose: 100.0 mg/kg/injection, schedule: Q01DX009 (ip), vehicle: other
[2] = dose: 200.0 mg/kg/injection, schedule: Q01DX009 (ip), vehicle: other
[3] = dose: 400.0 mg/kg/injection, schedule: Q01DX009 (ip), vehicle: other
[4] = dose: 50.0 mg/kg/injection, schedule: Q01DX009 (ip), vehicle: saline with Tween-80
[5] = dose: 100.0 mg/kg/injection, schedule: Q01DX009 (ip), vehicle: saline with Tween-80
[6] = dose: 200.0 mg/kg/injection, schedule: Q01DX009 (ip), vehicle: saline with Tween-80
[7] = dose: 2.5 mg/kg/injection, schedule: Q01DX001 (ip), vehicle: saline
[8] = dose: 5.0 mg/kg/injection, schedule: Q01DX001 (ip), vehicle: saline
[9] = dose: 10.0 mg/kg/injection, schedule: Q01DX001 (ip), vehicle: saline
[10] = dose: 100.0 mg/kg/injection, schedule: Q04DX003 (ip), vehicle: saline with Tween-80
[11] = dose: 200.0 mg/kg/injection, schedule: Q04DX003 (ip), vehicle: saline with Tween-80
[12] = dose: 400.0 mg/kg/injection, schedule: Q01DX009 (ip), vehicle: saline with Tween-80
[13] = dose: 400.0 mg/kg/injection, schedule: Q04DX003 (ip), vehicle: saline with Tween-80
[14] = dose: 2.0 mg/kg/injection, schedule: Q01DX009 (ip), vehicle: saline
[15] = dose: 4.0 mg/kg/injection, schedule: Q01DX009 (ip), vehicle: saline
[16] = dose: 8.0 mg/kg/injection, schedule: Q01DX009 (ip), vehicle: saline
[17] = dose: 6.25 mg/kg/injection, schedule: Q01DX009 (ip), vehicle: saline
[18] = dose: 12.5 mg/kg/injection, schedule: Q01DX009 (ip), vehicle: saline
[19] = dose: 25.0 mg/kg/injection, schedule: Q01DX009 (ip), vehicle: saline

COc1cccc(C(=O)CC(O)(C(F)(F)F)C(F)(F)F)c1
T/C [1]: 91 % of control
T/C (dose: 100.0 mg/kg/injection, schedule: Q04DX003 (ip), vehicle: other): 100 % of control
T/C [2]: 95 % of control
T/C (dose: 200.0 mg/kg/injection, schedule: Q04DX003 (ip), vehicle: other): 100 % of control
T/C [3]: 104 % of control
T/C (dose: 400.0 mg/kg/injection, schedule: Q04DX003 (ip), vehicle: other): 100 % of control

NC(=O)NN=C1CCCCC1
T/C (dose: 17.5 mg/kg/injection, schedule: Q01DX009 (ip), vehicle: Klucel (hydroxypropylcellulose) (HPC)): 90 % of control
T/C (dose: 26.25 mg/kg/injection, schedule: Q04DX003 (ip), vehicle: Klucel (hydroxypropylcellulose) (HPC)): 100 % of control
T/C (dose: 35.0 mg/kg/injection, schedule: Q01DX009 (ip), vehicle: Klucel (hydroxypropylcellulose) (HPC)): 122 % of control
T/C (dose: 52.5 mg/kg/injection, schedule: Q04DX003 (ip), vehicle: Klucel (hydroxypropylcellulose) (HPC)): 100 % of control

CCCCc1ccc(C#N)nc1
T/C [4]: 98 % of control
T/C [5]: 106 % of control
T/C [6]: 108 % of control

O=C(NO)c1ccc(O)c(O)c1
T/C (dose: 200.0 mg/kg/injection, schedule: Q01DX005 (ip), vehicle: water): 153 % of control
T/C (dose: 400.0 mg/kg/injection, schedule: Q01DX005 (ip), vehicle: water): 166 % of control

NNC(=O)c1cnccn1
T/C (dose: 40.0 mg/kg/injection, schedule: Q01DX010 (ip), vehicle: water): 100 % of control
T/C (dose: 60.0 mg/kg/injection, schedule: Q01DX010 (ip), vehicle: water): 100 % of control
T/C (dose: 80.0 mg/kg/injection, schedule: Q01DX010 (ip), vehicle: water): 100 % of control and 109 % of control

CCN(CC)c1ccc(/C=C2/C=Cc3ccccc32)cc1
T/C (dose: 100.0 mg/kg/injection, schedule: Q04DX003 (ip), vehicle: saline sonified): 95 % of control
T/C (dose: 200.0 mg/kg/injection, schedule: Q04DX003 (ip), vehicle: saline sonified): 100 % of control
T/C (dose: 400.0 mg/kg/injection, schedule: Q04DX003 (ip), vehicle: saline sonified): 100 % of control

CC[C@]1(O)CC(OC2CC(N(C)C)C(O)C(C)O2)c2c(cc3c(c2O)C(=O)c2c(O)cccc2C3=O)[C@@H]1C(=O)OC (stereo partly drawn)
T/C (dose: 1.25 mg/kg/injection, schedule: Q01DX001 (ip), vehicle: saline): 104 % of control and 110 % of control
T/C [7]: 100 % of control and 109 % of control
T/C [8]: 100 % of control
T/C [9]: 100 % of control

CCOC(=O)C(Cc1ccc(OC)c(OC)c1)C(Cc1ccc(OC)c(OC)c1)C(=O)OCC (stereo not drawn)
T/C [5]: 90 % of control
T/C [6]: 104 % of control

CC(CCC/C=C/CCCN(C)C(=N)N)CC(C)C1OC(=O)C(C)C(O)/C=C/C(C)C(O)C(C)C(O)C(C)C(O)CCCC(O)CC2(O)OC(CC(OC(=O)CC(=O)O)CC(O)CC(O)C(C)C(O)/C=C/C=C/C1C)CC(O)C2O (stereo not drawn)
T/C (dose: 1.8 mg/kg/injection, schedule: Q01DX009 (ip), vehicle: saline with Tween-80): 124 % of control
T/C (dose: 1.82 mg/kg/injection, schedule: Q04DX003 (ip), vehicle: saline): 90 % of control
T/C [7]: 109 % of control
T/C (dose: 3.65 mg/kg/injection, schedule: Q01DX009 (ip), vehicle: saline with Tween-80): 116 % of control
T/C (dose: 3.65 mg/kg/injection, schedule: Q04DX003 (ip), vehicle: saline): 109 % of control
T/C [8]: 100 % of control
T/C (dose: 7.3 mg/kg/injection, schedule: Q01DX009 (ip), vehicle: saline with Tween-80): 104 % of control
T/C (dose: 7.3 mg/kg/injection, schedule: Q04DX003 (ip), vehicle: saline): 104 % of control
T/C [9]: 109 % of control
T/C (dose: 10.0 mg/kg/injection, schedule: Q04DX003 (ip), vehicle: saline): 100 % of control

N#CC1c2ccccc2C=CN1C(=O)c1ccccc1 (stereo not drawn)
T/C [4]: 115 % of control
T/C [5]: 110 % of control
T/C (dose: 100.0 mg/kg/injection, schedule: Q04DX003 (ip), vehicle: Klucel (hydroxypropylcellulose) (HPC)): 100 % of control
T/C [10]: 100 % of control
T/C [6]: 110 % of control
T/C (dose: 200.0 mg/kg/injection, schedule: Q04DX003 (ip), vehicle: Klucel (hydroxypropylcellulose) (HPC)): 109 % of control
T/C [11]: 100 % of control
T/C [12]: 110 % of control
T/C (dose: 400.0 mg/kg/injection, schedule: Q04DX003 (ip), vehicle: Klucel (hydroxypropylcellulose) (HPC)): 109 % of control
T/C [13]: 100 % of control

CCNc1cc(Cl)nc(N)n1
T/C (dose: 12.5 mg/kg/injection, schedule: Q01DX009 (ip), vehicle: saline with Tween-80): 95 % of control
T/C (dose: 25.0 mg/kg/injection, schedule: Q01DX009 (ip), vehicle: saline with Tween-80): 104 % of control
T/C [4]: 104 % of control
T/C [10]: 108 % of control
T/C [11]: 95 % of control
T/C [13]: 112 % of control

Cc1ccc(C(=O)CC(O)(C(F)(F)F)C(F)(F)F)cc1
T/C [1]: 100 % of control
T/C [2]: 95 % of control
T/C [3]: 121 % of control

C=CCNC(=S)Nc1ccc(N(C)C)cc1
T/C (dose: 50.0 mg/kg/injection, schedule: Q04DX003 (ip), vehicle: saline with Tween-80): 100 % of control
T/C [10]: 95 % of control
T/C [11]: 109 % of control

CCOC(=O)CN1C=C(C(=O)c2cc3ccccc3n2S(=O)(=O)c2ccccc2)CCC1
T/C (dose: 0.05 mg/kg/injection, schedule: Q01DX009 (ip), vehicle: saline): 104 % of control
T/C (dose: 0.06 mg/kg/injection, schedule: Q01DX009 (ip), vehicle: saline): 105 % of control and 115 % of control
T/C (dose: 0.1 mg/kg/injection, schedule: Q01DX009 (ip), vehicle: saline): 106 % of control
T/C (dose: 0.12 mg/kg/injection, schedule: Q01DX009 (ip), vehicle: saline): 150 % of control
T/C (dose: 0.13 mg/kg/injection, schedule: Q01DX009 (ip), vehicle: saline): 88 % of control
T/C (dose: 0.2 mg/kg/injection, schedule: Q01DX009 (ip), vehicle: saline): 114 % of control
T/C (dose: 0.25 mg/kg/injection, schedule: Q01DX009 (ip), vehicle: saline): 105 % of control and 110 % of control
T/C (dose: 0.5 mg/kg/injection, schedule: Q01DX009 (ip), vehicle: saline): 115 % of control
T/C (dose: 1.0 mg/kg/injection, schedule: Q01DX009 (ip), vehicle: saline): 100 % of control
T/C [14]: 99 % of control and 105 % of control
T/C [15]: 121 % of control
T/C [16]: 104 % of control
T/C (dose: 16.0 mg/kg/injection, schedule: Q01DX009 (ip), vehicle: saline): 109 % of control
T/C (dose: 32.0 mg/kg/injection, schedule: Q01DX009 (ip), vehicle: saline): 106 % of control

CCN(O)C(N)=O
T/C [5]: 108 % of control
T/C [10]: 96 % of control and 104 % of control
T/C [6]: 100 % of control
T/C [11]: 88 % of control and 91 % of control
T/C [12]: 100 % of control
T/C [13]: 96 % of control and 100 % of control

Cc1nc2ccc(O)cc2cc1CBr
T/C [17]: 94 % of control and 105 % of control and 106 % of control
T/C (dose: 6.25 mg/kg/injection, schedule: Q04DX003 (ip), vehicle: saline): 98 % of control
T/C [18]: 101 % of control and 113 % of control and 118 % of control
T/C (dose: 12.5 mg/kg/injection, schedule: Q04DX003 (ip), vehicle: saline): 107 % of control
T/C [19]: 112 % of control and 119 % of control
T/C (dose: 25.0 mg/kg/injection, schedule: Q04DX003 (ip), vehicle: saline): 107 % of control
T/C (dose: 40.0 mg/kg/injection, schedule: Q01DX009 (ip), vehicle: saline): 103 % of control
T/C (dose: 50.0 mg/kg/injection, schedule: Q04DX003 (ip), vehicle: saline): 107 % of control

O=[As]O
T/C [14]: 115 % of control
T/C [15]: 123 % of control
T/C [16]: 150 % of control

O=[N+]([O-])[O-].OCCNCCNCC[OH2+].OCCNCCNCC[OH2+].[Cu+2]
T/C [17]: 97 % of control
T/C [18]: 100 % of control
T/C [19]: 88 % of control
